Consider nine compounds from ChEMBL document CHEMBL1131723, “Synthesis and structure-activity relationship of novel glycylcycline derivatives leading to the discovery of GAR-936” (1999).

Holding throughout (format): functional
In experiment [1] the test system is Escherichia coli. Briefly: In vitro antibacterial activity against Escherichia coli UBMS 90-4 Tet M.
Experiment [2] concerns Escherichia coli. The experiment can be described thus: In vitro antibacterial activity against Escherichia coli UBMS 90-5 sensitive.
The subject of experiment [3] is Escherichia coli. The experiment can be described thus: In vitro antibacterial activity against Escherichia coli J3272 Tet D.
Experiment [4] relates to Staphylococcus aureus. The experiment can be described thus: In vitro antibacterial activity against Staphylococcus aureus UBMS 88-7 Tet K.
Experiment [5] relates to Escherichia coli. Briefly: In vitro antibacterial activity against Escherichia coli J3272 Tet C.
Experiment [6] deals with Staphylococcus aureus. Briefly: In vitro antibacterial activity against Staphylococcus aureus UBMS 90-1 Tet M.
Experiment [7] deals with Escherichia coli. The experiment can be described thus: In vitro antibacterial activity against Escherichia coli UBMS 88-1 Tet B.
In experiment [8] the test system is Staphylococcus aureus. The experiment can be described thus: In vitro antibacterial activity against Staphylococcus aureus UBMS 90-3 sensitive.
Experiment [9] concerns Staphylococcus aureus. Briefly: In vitro antibacterial activity against Staphylococcus aureus Smith sensitive.
The test system of another experiment is Enterococcus. Briefly: In vitro antibacterial activity against Enterococcus ATCC 29212.
Experiment [10] relates to Escherichia coli. The experiment can be described thus: In vitro antibacterial activity against Escherichia coli PRP1 Tet A.

In brackets after ≈: the same amount, converted by molar mass.

The term MIC denotes the smallest concentration in the dilution series that meets the test's criterion for growth inhibition. High values mean weaker potency, low ones greater potency.

Take `CN(C)c1cc(NC(=O)CN2CCCCC2)c(O)c2c1CC1CC3[C@H](N(C)C)C(=O)C(C(N)=O)=C(O)[C@@]3(O)C(=O)C1=C2O` (some centres not stated): the MIC stood at 0.5 µg/mL (≈ 0.837 µM) with Escherichia coli [1]; 0.5 µg/mL (≈ 0.837 µM) against Escherichia coli [2]; 0.5 µg/mL (≈ 0.837 µM) against Escherichia coli [3]; 0.25 µg/mL (≈ 0.418 µM) with Staphylococcus aureus [4]; 0.25 µg/mL (≈ 0.418 µM) in the experiment with Escherichia coli [5]; 0.25 µg/mL (≈ 0.418 µM) against Staphylococcus aureus [6]. Also, the MIC with Escherichia coli [7] was found to be 0.5 µg/mL (≈ 0.837 µM); with Staphylococcus aureus [8], 0.12 µg/mL (≈ 0.201 µM); against Staphylococcus aureus [9], 0.12 µg/mL (≈ 0.201 µM); in the experiment on Enterococcus it was 0.06 µg/mL (≈ 0.1 µM); in the experiment on Escherichia coli [10], 1 µg/mL (≈ 1.67 µM).
Consider `CN(C)c1cc(NC(=O)CNCC2CC2)c(O)c2c1CC1CC3[C@H](N(C)C)C(=O)C(C(N)=O)=C(O)[C@@]3(O)C(=O)C1=C2O` (some centres not stated), for which the MIC against Escherichia coli [1] came to 0.5 µg/mL (≈ 0.857 µM); against Escherichia coli [2] it was 0.5 µg/mL (≈ 0.857 µM); against Escherichia coli [3], 0.25 µg/mL (≈ 0.428 µM); with Staphylococcus aureus [4], 4 µg/mL (≈ 6.85 µM); in the experiment with Escherichia coli [5], 0.5 µg/mL (≈ 0.857 µM); against Staphylococcus aureus [6], 1 µg/mL (≈ 1.71 µM). The MIC with Escherichia coli [7] came out at 0.5 µg/mL (≈ 0.857 µM); in the experiment on Staphylococcus aureus [8], 0.5 µg/mL (≈ 0.857 µM); against Staphylococcus aureus [9] it was 0.5 µg/mL (≈ 0.857 µM); in the experiment with Enterococcus, 0.25 µg/mL (≈ 0.428 µM); against Escherichia coli [10], 4 µg/mL (≈ 6.85 µM).
For the compound `CN(C)c1ccc(O)c2c1C[C@H]1C[C@H]3[C@H](N(C)C)C(O)=C(C(N)=O)C(=O)[C@@]3(O)C(O)=C1C2=O` [MINOCYCLINE], the minimal inhibitory concentration (MIC) worked out at 16 µg/mL (≈ 35 µM) in the experiment on Escherichia coli [1]; 16 µg/mL (≈ 35 µM) in the experiment with Escherichia coli [2]; 4 µg/mL (≈ 8.74 µM) in the experiment with Escherichia coli [3]; 16 µg/mL (≈ 35 µM) with Staphylococcus aureus [4]; 32 µg/mL (≈ 69.9 µM) against Escherichia coli [5]; 8 µg/mL (≈ 17.5 µM) against Staphylococcus aureus [6]. The MIC was over 32 µg/mL with Escherichia coli [7]; 2 µg/mL (≈ 4.37 µM) in the experiment on Staphylococcus aureus [8]; 2 µg/mL (≈ 4.37 µM) in the experiment on Staphylococcus aureus [9]; 4 µg/mL (≈ 8.74 µM) in the experiment on Enterococcus; over 32 µg/mL against Escherichia coli [10].
For `CN(C)c1cc(NC(=O)CNCc2ccccn2)c(O)c2c1CC1CC3[C@H](N(C)C)C(=O)C(C(N)=O)=C(O)[C@@]3(O)C(=O)C1=C2O` (some centres not stated), the MIC with Escherichia coli [1] worked out at 8 µg/mL (≈ 12.9 µM); in the experiment on Escherichia coli [2] it was 16 µg/mL (≈ 25.8 µM); with Escherichia coli [3], 8 µg/mL (≈ 12.9 µM); in the experiment with Staphylococcus aureus [4], 32 µg/mL (≈ 51.6 µM); in the experiment on Escherichia coli [5] it was 16 µg/mL (≈ 25.8 µM); against Staphylococcus aureus [6], 8 µg/mL (≈ 12.9 µM). In addition, the MIC against Escherichia coli [7] is 16 µg/mL (≈ 25.8 µM); in the experiment with Staphylococcus aureus [8], 4 µg/mL (≈ 6.44 µM); in the experiment on Staphylococcus aureus [9], 4 µg/mL (≈ 6.44 µM); in the experiment with Enterococcus, 2 µg/mL (≈ 3.22 µM); in the experiment on Escherichia coli [10] it was 32 µg/mL (≈ 51.6 µM).
Turning to `CCCNCC(=O)Nc1cc(N(C)C)c2c(c1O)C(=O)C1=C(O)[C@]3(O)C(O)=C(C(N)=O)C(=O)[C@@H](N(C)C)C3CC1C2` (some centres not stated), the MIC worked out at 0.25 µg/mL (≈ 0.437 µM) in the experiment with Escherichia coli [1]; 0.5 µg/mL (≈ 0.875 µM) with Escherichia coli [2]; 0.12 µg/mL (≈ 0.21 µM) in the experiment with Escherichia coli [3]; 2 µg/mL (≈ 3.5 µM) against Staphylococcus aureus [4]; 0.5 µg/mL (≈ 0.875 µM) in the experiment on Escherichia coli [5]; 0.5 µg/mL (≈ 0.875 µM) in the experiment on Staphylococcus aureus [6]. Moreover, the MIC against Escherichia coli [7] was found to be 0.5 µg/mL (≈ 0.875 µM); in the experiment on Staphylococcus aureus [8] it was 0.25 µg/mL (≈ 0.437 µM); in the experiment with Staphylococcus aureus [9], 0.25 µg/mL (≈ 0.437 µM); against Enterococcus, 0.25 µg/mL (≈ 0.437 µM); with Escherichia coli [10], 2 µg/mL (≈ 3.5 µM).
Take `CN(C)c1cc(NC(=O)CNC(C)(C)C)c(O)c2c1C[C@H]1C[C@H]3[C@H](N(C)C)C(O)=C(C(N)=O)C(=O)[C@@]3(O)C(O)=C1C2=O` [TIGECYCLINE]: the MIC was 0.12 µg/mL (≈ 0.205 µM) against Escherichia coli [1]; 0.25 µg/mL (≈ 0.427 µM) with Escherichia coli [2]; 0.12 µg/mL (≈ 0.205 µM) with Escherichia coli [3]; 0.5 µg/mL (≈ 0.854 µM) against Staphylococcus aureus [4]; 0.25 µg/mL (≈ 0.427 µM) against Escherichia coli [5]; 0.12 µg/mL (≈ 0.205 µM) against Staphylococcus aureus [6]. Also, the MIC against Escherichia coli [7] amounted to 0.5 µg/mL (≈ 0.854 µM); in the experiment with Staphylococcus aureus [8], 0.25 µg/mL (≈ 0.427 µM); in the experiment with Staphylococcus aureus [9], 0.25 µg/mL (≈ 0.427 µM); in the experiment with Enterococcus it was 0.12 µg/mL (≈ 0.205 µM); in the experiment with Escherichia coli [10], 0.25 µg/mL (≈ 0.427 µM).
For the compound `CN(C)c1cc(NC(=O)CN2CCOCC2)c(O)c2c1CC1CC3[C@H](N(C)C)C(=O)C(C(N)=O)=C(O)[C@@]3(O)C(=O)C1=C2O` (some centres not stated), the MIC in the experiment on Escherichia coli [2] was over 32 µg/mL; in the experiment with Escherichia coli [3] it was 32 µg/mL (≈ 53.4 µM); in the experiment on Staphylococcus aureus [4], 32 µg/mL (≈ 53.4 µM); in the experiment on Escherichia coli [5], over 32 µg/mL; against Staphylococcus aureus [6], 4 µg/mL (≈ 6.67 µM); in the experiment with Escherichia coli [7], over 32 µg/mL. The MIC in the experiment with Staphylococcus aureus [8] was 2 µg/mL (≈ 3.34 µM); against Staphylococcus aureus [9], 2 µg/mL (≈ 3.34 µM); in the experiment with Enterococcus, 2 µg/mL (≈ 3.34 µM); with Escherichia coli [10], over 32 µg/mL.
`CN(C)c1cc(NC(=O)CBr)c(O)c2c1CC1CC3[C@H](N(C)C)C(=O)C(C(N)=O)=C(O)[C@@]3(O)C(=O)C1=C2O` (some centres not stated): the MIC is 16 µg/mL (≈ 27 µM) in the experiment on Escherichia coli [2]; 32 µg/mL (≈ 53.9 µM) against Escherichia coli [3]; 2 µg/mL (≈ 3.37 µM) against Staphylococcus aureus [4]; over 32 µg/mL against Escherichia coli [5]; 1 µg/mL (≈ 1.69 µM) with Staphylococcus aureus [6]; over 32 µg/mL against Escherichia coli [7]. Further, the MIC was 0.5 µg/mL (≈ 0.843 µM) in the experiment with Staphylococcus aureus [8], 0.5 µg/mL (≈ 0.843 µM) against Staphylococcus aureus [9], 0.5 µg/mL (≈ 0.843 µM) in the experiment with Enterococcus and over 32 µg/mL in the experiment with Escherichia coli [10].
As to `CN(C)c1cc(NC(=O)CNC2CCCC2)c(O)c2c1CC1CC3[C@H](N(C)C)C(=O)C(C(N)=O)=C(O)[C@@]3(O)C(=O)C1=C2O` (some centres not stated), the MIC with Escherichia coli [1] came to 0.25 µg/mL (≈ 0.418 µM); in the experiment with Escherichia coli [2], 0.25 µg/mL (≈ 0.418 µM); in the experiment on Escherichia coli [3] it was 0.12 µg/mL (≈ 0.201 µM); in the experiment on Staphylococcus aureus [4], 2 µg/mL (≈ 3.35 µM); in the experiment with Escherichia coli [5] it was 0.25 µg/mL (≈ 0.418 µM); against Staphylococcus aureus [6], 0.25 µg/mL (≈ 0.418 µM). Further, the MIC in the experiment on Escherichia coli [7] worked out at 0.25 µg/mL (≈ 0.418 µM); against Staphylococcus aureus [8], 0.12 µg/mL (≈ 0.201 µM); against Staphylococcus aureus [9] it was 0.25 µg/mL (≈ 0.418 µM); against Enterococcus, 0.12 µg/mL (≈ 0.201 µM); in the experiment on Escherichia coli [10] it was 1 µg/mL (≈ 1.67 µM).
